Like-named read-outs stand apart in the source and are kept apart here.
How the values were obtained:
[1] = target: T1, AEA-DA lipid probe targets in Neuro2a cells (Mus musculus, UniProt Q9WV54)
T1 sequence (Q9WV54 19-394): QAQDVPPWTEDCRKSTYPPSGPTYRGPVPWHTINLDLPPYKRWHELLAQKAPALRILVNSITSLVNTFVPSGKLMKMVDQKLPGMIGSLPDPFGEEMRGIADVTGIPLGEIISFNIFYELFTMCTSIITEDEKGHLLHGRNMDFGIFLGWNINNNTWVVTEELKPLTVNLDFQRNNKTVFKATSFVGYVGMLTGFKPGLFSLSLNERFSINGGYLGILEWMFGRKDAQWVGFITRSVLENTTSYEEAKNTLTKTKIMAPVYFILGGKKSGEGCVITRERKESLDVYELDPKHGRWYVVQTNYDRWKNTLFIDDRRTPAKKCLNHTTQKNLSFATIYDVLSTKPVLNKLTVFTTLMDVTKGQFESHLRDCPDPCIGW

[2] = target: T2, AEA-DA lipid probe targets in Neuro2a cells (Mus musculus, UniProt O08579); details: for SILAC ratio, EMD (O08579): Neuro2a cells, AEA-DA probe
T2 sequence (O08579 1-259): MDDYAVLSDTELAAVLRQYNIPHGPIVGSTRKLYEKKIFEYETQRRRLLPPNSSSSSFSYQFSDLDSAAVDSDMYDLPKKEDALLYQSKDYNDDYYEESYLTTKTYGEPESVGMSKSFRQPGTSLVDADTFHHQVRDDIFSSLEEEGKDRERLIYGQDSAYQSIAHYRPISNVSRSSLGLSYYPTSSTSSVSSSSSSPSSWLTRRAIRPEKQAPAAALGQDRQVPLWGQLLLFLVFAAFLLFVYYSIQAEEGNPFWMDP

[3] = target: T3, AEA-DA lipid probe targets in Neuro2a cells (Mus musculus, UniProt Q61425)
T3 sequence (Q61425 13-314): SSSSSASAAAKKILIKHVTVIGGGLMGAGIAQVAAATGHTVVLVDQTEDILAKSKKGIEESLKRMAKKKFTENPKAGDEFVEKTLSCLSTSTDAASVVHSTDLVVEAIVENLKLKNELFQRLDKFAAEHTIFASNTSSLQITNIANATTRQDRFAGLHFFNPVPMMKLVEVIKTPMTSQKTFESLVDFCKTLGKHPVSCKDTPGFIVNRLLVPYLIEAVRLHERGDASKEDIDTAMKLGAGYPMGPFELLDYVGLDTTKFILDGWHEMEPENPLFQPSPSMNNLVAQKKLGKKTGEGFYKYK

[4] = target: T4, AEA-DA lipid probe targets in Neuro2a cells (Mus musculus, UniProt O70252); details: for SILAC ratio, HMOX2 (P30519): Neuro2a cells, AEA-DA probe
T4 sequence (O70252 1-315): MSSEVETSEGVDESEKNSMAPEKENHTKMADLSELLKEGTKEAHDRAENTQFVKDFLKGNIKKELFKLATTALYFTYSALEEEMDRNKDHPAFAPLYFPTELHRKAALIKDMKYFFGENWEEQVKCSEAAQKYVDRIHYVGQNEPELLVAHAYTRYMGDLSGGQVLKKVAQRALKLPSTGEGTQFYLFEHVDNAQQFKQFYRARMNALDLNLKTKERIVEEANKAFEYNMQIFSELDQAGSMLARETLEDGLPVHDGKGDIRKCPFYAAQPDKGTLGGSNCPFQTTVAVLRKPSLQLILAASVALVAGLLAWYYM

[5] = target: AEA-DA lipid probe targets in Neuro2a cells (Mus musculus, UniProt Q8VDQ1)
[6] = target: T5, AEA-DA lipid probe targets in Neuro2a cells (Mus musculus, UniProt Q8BIJ6); details: protein Iars2, Neuro2a cells
T5 sequence (Q8BIJ6 49-1012): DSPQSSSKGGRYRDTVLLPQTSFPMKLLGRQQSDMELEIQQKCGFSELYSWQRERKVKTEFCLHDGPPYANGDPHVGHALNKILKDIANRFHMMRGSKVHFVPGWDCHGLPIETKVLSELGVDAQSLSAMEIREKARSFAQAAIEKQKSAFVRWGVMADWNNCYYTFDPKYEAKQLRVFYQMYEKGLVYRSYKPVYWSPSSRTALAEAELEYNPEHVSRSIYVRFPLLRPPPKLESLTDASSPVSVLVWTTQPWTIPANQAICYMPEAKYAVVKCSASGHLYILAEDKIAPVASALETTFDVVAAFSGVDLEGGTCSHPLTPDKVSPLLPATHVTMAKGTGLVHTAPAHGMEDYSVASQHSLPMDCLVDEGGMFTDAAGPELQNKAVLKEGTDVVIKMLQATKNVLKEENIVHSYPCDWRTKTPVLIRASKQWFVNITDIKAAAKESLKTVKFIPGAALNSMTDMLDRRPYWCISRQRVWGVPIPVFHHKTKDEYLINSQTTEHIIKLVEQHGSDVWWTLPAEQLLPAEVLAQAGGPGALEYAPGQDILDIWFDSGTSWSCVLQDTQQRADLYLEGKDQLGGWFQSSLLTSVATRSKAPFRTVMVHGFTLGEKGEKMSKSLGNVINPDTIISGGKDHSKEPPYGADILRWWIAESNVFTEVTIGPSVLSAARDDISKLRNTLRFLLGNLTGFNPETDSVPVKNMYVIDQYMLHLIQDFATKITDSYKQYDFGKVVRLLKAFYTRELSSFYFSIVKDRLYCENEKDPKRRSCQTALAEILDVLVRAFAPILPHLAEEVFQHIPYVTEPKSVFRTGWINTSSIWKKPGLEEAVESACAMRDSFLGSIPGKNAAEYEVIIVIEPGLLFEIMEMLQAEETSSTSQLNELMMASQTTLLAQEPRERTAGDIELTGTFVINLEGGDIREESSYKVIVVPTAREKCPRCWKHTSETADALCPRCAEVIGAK

Sequence of AEA-DA lipid probe targets in Neuro2a cells (Mus musculus, UniProt Q8VDQ1) (Q8VDQ1 whole entry): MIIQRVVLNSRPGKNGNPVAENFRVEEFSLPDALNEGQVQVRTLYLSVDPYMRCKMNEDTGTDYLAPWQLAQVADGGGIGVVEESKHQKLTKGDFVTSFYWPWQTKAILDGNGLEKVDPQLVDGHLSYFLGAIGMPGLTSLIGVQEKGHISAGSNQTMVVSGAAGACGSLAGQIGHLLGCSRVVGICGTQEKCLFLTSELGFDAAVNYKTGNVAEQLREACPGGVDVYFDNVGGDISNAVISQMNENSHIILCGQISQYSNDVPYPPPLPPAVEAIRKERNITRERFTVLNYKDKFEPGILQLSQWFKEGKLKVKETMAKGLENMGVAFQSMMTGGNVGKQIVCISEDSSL

Row | Compound | SILAC ratio Asah1 ([1]; competitor 25 μM) | SILAC ratio, EMD (O08579) ([2]; competitor 25 μM) | SILAC ratio, Emd ([2]; competitor 25 μM) | SILAC ratio Hadh ([3]; competitor 25 μM) | SILAC ratio, HMOX2 (P30519) ([4]; competitor 25 μM) | SILAC ratio, Hmox2 ([4]; competitor 25 μM) | SILAC ratio, Ptgr2 ([5]; competitor 25 μM) | SILAC ratio (AEA-DA competition) ([6]; competitor 25 μM) | also measured
1 | O=C(/C=C/c1cccnc1)NCCCCC1CCN(C(=O)c2ccccc2)CC1 [FK-866, reference compound] | 1.3 | 1.4 | 1.4 | 1.2 | 1.0 | 1.0 | 5.2 | – | –
2 | CCCCC/C=C\C/C=C\C/C=C\C/C=C\CCCC(=O)NCCO [AEA, anandamide, reference compound] | – | – | – | – | – | – | – | – | SILAC ratio Asah1 ([1]; competitor 200 μM): 0.8; SILAC ratio (AEA-DA competition) ([6]; competitor 200 μM): 0.9; SILAC ratio, EMD (O08579) ([2]; competitor 200 μM): 1.4; SILAC ratio, Emd ([2]; competitor 200 μM): 1.4; SILAC ratio Hadh ([3]; competitor 200 μM): 1.2; SILAC ratio, HMOX2 (P30519) ([4]; competitor 200 μM): 3.2; SILAC ratio, Hmox2 ([4]; competitor 200 μM): 3.2; SILAC ratio, Ptgr2 ([5]; competitor 200 μM): 8.7
3 | CN1CCN(C(=O)c2c(-c3ccccc3)c3cc([N+](=O)[O-])ccc3n2C)CC1 [KML110, (1-Methyl-5-nitro-3-phenyl-1H-indol-2-yl)(4-methylpiperazin-1-yl)methanone] | 1.2 | – | 1.7 | 1.2 | – | 1.5 | 1.5 | – | –
4 | C=CCN(C)CCCCCCOc1ccc(C(=O)c2ccc(Br)cc2)c(F)c1 [Ro 48-8071, reference compound] | 1.0 | 1.3 | 1.3 | 0.8 | 1.3 | 1.3 | 1.1 | 0.7 | –
5 | CN1CCN(C(=O)c2[nH]c3ccc([N+](=O)[O-])cc3c2-c2ccccc2)CC1 [MJN228, (4-Methylpiperazin-1-yl)(5-nitro-3-phenyl-1H-indol-2-yl)methanone] | 1.6 | 2.4 | 2.4 | 1.3 | 1.4 | 1.4 | 1.2 | 1.0 | SILAC ratio Asah1 ([1]; competitor 10 μM): 1.4; SILAC ratio Asah1 ([1]; competitor 50 μM): 2.2; SILAC ratio Asah1 ([1]; competitor 100 μM): 2.1; SILAC ratio (AEA-DA competition) ([6]; competitor 10 μM): 0.8; SILAC ratio (AEA-DA competition) ([6]; competitor 50 μM): 0.7; SILAC ratio, Emd ([2]; competitor 10 μM): 1.8; SILAC ratio, Emd ([2]; competitor 50 μM): 2.5; SILAC ratio, Emd ([2]; competitor 100 μM): 4.5; SILAC ratio Hadh ([3]; competitor 10 μM): 1.3; SILAC ratio Hadh ([3]; competitor 50 μM): 1.1; SILAC ratio Hadh ([3]; competitor 100 μM): 1.3; SILAC ratio, Hmox2 ([4]; competitor 10 μM): 1.1; SILAC ratio, Hmox2 ([4]; competitor 50 μM): 1.3; SILAC ratio, Hmox2 ([4]; competitor 100 μM): 1.7; SILAC ratio, Ptgr2 ([5]; competitor 10 μM): 1.2; SILAC ratio, Ptgr2 ([5]; competitor 50 μM): 1.0; SILAC ratio, Ptgr2 ([5]; competitor 100 μM): 1.5

Reference: patent publication US10168342B2, “Lipid probes and uses thereof” (THE SCRIPPS RESEARCH INSTITUTE, priority 2015, dated 2019)
